Experimental data taken from PMC10535864, “Novel Aminopyrimidine-2,4-diones, 2-Thiopyrimidine-4-ones, and 6-Arylpteridines as Dual-Target Inhibitors of BRD4/PLK1: Design, Synthesis, Cytotoxicity, and Computational Studies” (Pharmaceuticals, 2023).
Read-outs that look alike come from different tables or passages of the source.

Legend:
[1] = system: MDA-MB-231 breast cancer cells; test: MTT cytotoxicity assay, MDA-MB-231; type: cell-based; conditions: for IC50 / viability at 0.312 µM / viability at 0.625 µM / viability at 1.25 µM / viability at 2.5 µM / viability at 5 µM / viability at 10 µM: Homo sapiens; for IC50 / viability at 0.312 µM / viability at 0.625 µM / viability at 1.25 µM / viability at 2.5 µM / viability at 5 µM / viability at 10 µM / Toxicity %: MDA-MB-231
Outline: (§1)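 Cells seeded at 1 X 10^5 cells/mL and grown 24 h at 37°C to a monolayer, then exposed to two-fold compound dilutions in RPMI with 2% serum, six doses. MTT added for 4 h at 37°C, formazan dissolved in DMSO, OD read at 560 nm minus 620 nm background. IC50 from dose-response.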

[2] = system: HT-29 colorectal adenocarcinoma cells; test: MTT cytotoxicity assay, HT-29; type: cell-based; conditions: for viability at 0.312 µM / viability at 0.625 µM / viability at 1.25 µM / viability at 2.5 µM / viability at 5 µM / viability at 10 µM / IC50: Homo sapiens, HT-29
Outline: as §1

[3] = MTT cytotoxicity assay, U-937; type: cell-based; conditions: Homo sapiens, U-937, U937, MTT;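 note: Six-dose MTT colorimetric assay on cell monolayers, formazan absorbance read at 560 nm with 620 nm background removed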
Method: (§2) All newly synthetic compounds were tested for cytotoxicity using a six-dose MTT colorimetric assay on three cancer cell lines; namely, breast cancer cells (MDA-MB-231), colorectal adenocarcinoma cells (HT-29) and renal cancer cells (U-937).
(§3) Using a six-dose MTT colorimetric assay [44, 66], all new synthetic compounds were tested for cytotoxicity against three cancer cell lines: MDA-MB-231 breast cancer cells, HT-29 colorectal adenocarcinoma cells, and U-937 renal cancer cells. […] These cell lines were supplied by ATCC (American Type Culture Collection) via the Holding company for biological products and vaccines (VACSERA, Cairo, Egypt). The reference control used was Methotrexate.
(§4) Using a six-dose MTT colorimetric assay [44, 66], allnew synthetic compounds were tested for cytotoxicity against three cancer cell lines: MDA-MB-231 breast cancer cells,HT-29 colorectal adenocarcinoma cells, and U-937 renal
(§5) The cell lines were supplied by ATCC (American Type Culture Collection). The reference control used was Methotrexate. The cytotoxic activities of the examined compounds were quantified by inoculating a 96-well tissue culture plate with 1 X 10^5 cells / mL (100 uL/well) and incubating it at 37°C for 24 hours to develop a complete monolayer sheet. After forming a confluent sheet of cells, the growth medium was decanted from 96-well microtiter plates, and the cell monolayer was washed twice with wash media. Two-fold dilutions of tested samples were made in RPMI medium with 2% serum (maintenance medium), and 0.1 mL of each dilution was tested in different wells, with three wells serving as controls and receiving only maintenance medium. Following that, the plate was incubated at 37°C and examined. Cells were investigated for any physical signs of toxicity, such as partial or complete monolayer loss, rounding, shrinkage, or cell granulation. MTT solution was prepared (5mg/ml in PBS) (BIO BASIC CANADA INC), and 20 uL MTT solution was added to each well. After 5 minutes on a shaking table at150 rpm to thoroughly mix the MTT into the media, it was incubated (37C, 5% CO2) for 4 hours to allow the MTT to be metabolized. Formazan (MTT metabolic product) was resuspended in 200 uL DMSO and shaken at 150 rpm for 5 minutes to thoroughly mix the formazan into the solvent. The optical density was measured at 560 nm, and the background was subtracted at 620 nm. Finally, the IC50 of the test compound in comparison to the reference was calculated using the GraphPad Prism software.

U-937 renal cancer cells = test: MTT cytotoxicity assay, U-937; type: cell-based; conditions: for IC50: Homo sapiens, U-937;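 for all read-outs here: Six-dose MTT colorimetric assay on cell monolayers, formazan absorbance read at 560 nm with 620 nm background removed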
Method: as §2, §3, §4, §5

[4] = MTT cytotoxicity assay, normal Vero cells; type: cell-based; conditions: African green monkey, normal Vero cells, MTT; for IC50: mean of three independent experiments ± SD, read-out: In Vitro Cytotoxicity against Normal Cells IC50 Value, Vero Cells; for viability at 0.312 µM / viability at 0.625 µM / viability at 1.25 µM / viability at 2.5 µM / viability at 5 µM / viability at 10 µM: Vero
Method: as §3
1.1.In-vitro cytotoxicity screening
as §4, §5

normal Vero cells = test: MTT cytotoxicity assay, normal Vero cells; type: cell-based; conditions: Vero; for Toxicity %: MTT
Method: as §3
1.1.In-vitro cytotoxicity screening
as §4, §5

BRD4 (BD2) = biological target: T1, BRD4 (BD2) (Homo sapiens, UniProt O60885); test: BRD4 inhibitory activity assay (AlphaLISA Bromodomain Assay); type: binding; conditions: for %inh: BRD4 Lab Report; for IC50: mean of three independent experiments, read-out: BRD4 IC50 ± SD;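 for all read-outs here: in vitro inhibition of recombinant BRD4 BD2 bromodomain binding to a BET bromodomain ligand, read by AlphaLISA proximity signal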
T1 construct: BRD4 (BD2) should be thawed on ice; purchased
Method: The BRD4 and PLK1 inhibitory assays were carried out in vitro in accordance with the manufacturer’s instructions; BRD4 was assessed using AlphaLISA Bromodomain Assay Protocol [67], and PLK1 kinase was tested using the ADP-Glo™ Kinase Assay Protocol [68], as detailed in the Supplementary file.
The BRD4 and PLK1 inhibitory assays were carried out in vitro in accordance with the manufacturer's instructions; BRD4 was assessed using AlphaLISA Bromodomain Assay Protocol [67], and PLK1 kinase was tested using the ADP-Glo™ Kinase Assay Protocol [68],
The master mixture was prepared as follows: N wells × (2.5 µL 3x BRD Homogeneous Assay Buffer 1 + 1 µL BET Bromodomain Ligand + 1.5 µL H2O). BRD4 (BD2) should be thawed on ice. Simply, the protein-containing tube was spined to recover the full content of the tube after the firstthaw. Both proteins should be aliquoted into single-use aliquots. Immediately, any remaining undiluted protein should be stored in aliquots at -80°C. BRD4 (BD2) was diluted in 1x BRD Homogeneous Assay Buffer 1 at 4 ng/µL. The diluted proteins were kept on ice until they were used. 5 µl of the master mixture is added to each well designated for the “Positive Control”, “Test Inhibitor”, and “Blank”. For the “Substrate Control”, 2.5 µL 3x BRD Homogeneous Assay Buffer 1 + 1 µL Non-acetylated Ligand 1 + 1.5 µL H2O is added. Each “Test Inhibitor” well received 2.5 µL of inhibitor solution, while the “Positive
Control”, “Substrate Control”, and “Blank” wells received 2.5 µL of the same solution without inhibitor (inhibitor buffer). Then, the “Blank” well is filled with 2.5 µL of 1x BRD Homogeneous Assay Buffer 1. After that, GSH
10 µL per well is added, the plate isshaken, and itis incubated at room temperature for 30 minutes. Streptavidin-
10 µL is added per well and incubated at room temperature for further 15 – 30 minutes [67]. The Alpha counts were read using the EnVision® multimode plate reader with the standard Alpha detection settings.

human recombinant PLK1 = human recombinant PLK1 (Homo sapiens, UniProt P53350); test: PLK1 inhibitory activity assay (ADP-Glo Kinase Assay); type: biochemical; conditions: for %inh: PLK1 Lab Report; for IC50: mean of three independent experiments, read-out: PLK1 IC50 ± SD
[5] = MTT, mean of three independent experiments ± SD, read-out: IC50 Value MDA-MB-231
[6] = MTT, mean of three independent experiments ± SD, read-out: IC50 Value HT-29
[7] = SI = IC50 normal cells (Vero)/IC50 cancer cells
[8] = MTT, mean of three independent experiments ± SD, read-out: IC50 Value U-937

Chain of human recombinant PLK1 (P53350 whole entry): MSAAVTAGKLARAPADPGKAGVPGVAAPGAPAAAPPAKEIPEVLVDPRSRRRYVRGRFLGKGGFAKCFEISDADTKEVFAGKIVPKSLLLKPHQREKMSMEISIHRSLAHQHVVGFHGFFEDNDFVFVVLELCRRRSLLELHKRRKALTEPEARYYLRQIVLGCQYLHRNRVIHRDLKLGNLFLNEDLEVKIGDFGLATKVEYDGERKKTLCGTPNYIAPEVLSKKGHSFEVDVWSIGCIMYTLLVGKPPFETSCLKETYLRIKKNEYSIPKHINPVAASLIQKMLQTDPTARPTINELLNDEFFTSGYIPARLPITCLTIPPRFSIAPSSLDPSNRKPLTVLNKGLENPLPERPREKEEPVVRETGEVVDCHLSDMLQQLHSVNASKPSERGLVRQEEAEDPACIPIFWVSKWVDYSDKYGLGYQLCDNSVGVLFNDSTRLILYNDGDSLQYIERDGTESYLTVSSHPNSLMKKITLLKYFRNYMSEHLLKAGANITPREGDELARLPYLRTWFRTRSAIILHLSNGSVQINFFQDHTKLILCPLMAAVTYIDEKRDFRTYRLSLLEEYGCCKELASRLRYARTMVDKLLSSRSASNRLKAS

COc1ccc(/C(CBr)=N\c2c(N)n(Cc3ccccc3Cl)c(=O)[nH]c2=O)cc1 [Compound 6b, (E)-6-Amino-5-((2-bromo-1-(4-methoxyphenyl)ethylidene)amino)-1-(2-chlorobenzyl) pyrimidine-2,4(1H,3H)-dione]
IC50 [1, 5]: 1000 ± 20 nM
viability at 0.312 µM ([1]; MTT, 0.312 uM): 84.9%
viability at 0.625 µM ([1]; MTT, 0.625 uM): 26.6%
viability at 1.25 µM ([1]; MTT, 1.25 uM): 10.2%
viability at 2.5 µM ([1]; MTT, 2.5 uM): 8.47%
viability at 5 µM ([1]; MTT, 5 uM): 8.55%
viability at 10 µM ([1]; MTT, 10 uM): 4.7%
IC50 ([1]; supplement viability lab report, read-out: IC50 ± SD): 630 nM
Toxicity % ([1]; MTT, 0.312 uM): 15.07%
Toxicity % ([1]; MTT, 0.625 uM): 73.45%
Toxicity % ([1]; MTT, 1.25 uM): 89.85%
Toxicity % ([1]; MTT, 2.5 uM): 91.53%
Toxicity % ([1]; MTT, 5 uM): 91.45%
Toxicity % ([1]; MTT, 10 uM): 95.3%
Selectivity Indices (SI) MDA-MB-231 ([1]; SI = IC50 normal cells (Vero)/IC50 cancer cells, ≥5 highly, >2 moderately, <2 non-selective): 1.95
Toxicity % ([2]; HT29, MTT, 0.312 uM): 0.3876%
Toxicity % ([2]; HT29, MTT, 0.625 uM): 47.33%
Toxicity % ([2]; HT29, MTT, 1.25 uM): 95.82%
Toxicity % ([2]; HT29, MTT, 2.5 uM): 95.95%
Toxicity % ([2]; HT29, MTT, 5 uM): 95.61%
Toxicity % ([2]; HT29, MTT, 10 uM): 93.71%
viability at 0.312 µM ([2]; HT29, MTT, 0.312 uM): 99.6%
viability at 0.625 µM ([2]; HT29, MTT, 0.625 uM): 52.7%
viability at 1.25 µM ([2]; HT29, MTT, 1.25 uM): 4.18%
viability at 2.5 µM ([2]; HT29, MTT, 2.5 uM): 4.05%
viability at 5 µM ([2]; HT29, MTT, 5 uM): 4.39%
viability at 10 µM ([2]; HT29, MTT, 10 uM): 6.29%
IC50 [2, 6]: 1690 ± 10 nM
IC50 ([2]; supplement viability lab report, HT29, read-out: IC50 ± SD): 750 nM
Selectivity Indices (SI) HT-29 [2, 7]: 1.15
viability at 0.312 µM [3]: 99.1%
viability at 0.625 µM [3]: 77.5%
viability at 1.25 µM [3]: 28%
viability at 2.5 µM [3]: 12.2%
viability at 5 µM [3]: 10.4%
viability at 10 µM [3]: 9.69%
IC50 (U-937 renal cancer cells; [8]): 1120 ± 20 nM
IC50 (U-937 renal cancer cells; supplement viability lab report, U937, read-out: IC50 ± SD): 970 nM
Selectivity Indices (SI) U-937 (U-937 renal cancer cells; [7]): 1.74
Toxicity % (U-937 renal cancer cells; U937, MTT, 0.312 uM): 0.9259%
Toxicity % (U-937 renal cancer cells; U937, MTT, 0.625 uM): 22.49%
Toxicity % (U-937 renal cancer cells; U937, MTT, 1.25 uM): 72%
Toxicity % (U-937 renal cancer cells; U937, MTT, 2.5 uM): 87.8%
Toxicity % (U-937 renal cancer cells; U937, MTT, 5 uM): 89.6%
Toxicity % (U-937 renal cancer cells; U937, MTT, 10 uM): 90.31%
IC50 [4]: 1950 ± 50 nM
viability at 0.312 µM [4]: 99.1%
viability at 0.625 µM [4]: 99.1%
viability at 1.25 µM [4]: 70.3%
viability at 2.5 µM [4]: 38.4%
viability at 5 µM [4]: 12.8%
viability at 10 µM [4]: 6.15%
IC50 (normal Vero cells; Chlorocebus sabaeus, supplement viability lab report): 2060 nM
Toxicity % (normal Vero cells; 0.312 uM): 0.9182%
Toxicity % (normal Vero cells; 0.625 uM): 0.8782%
Toxicity % (normal Vero cells; 1.25 uM): 29.74%
Toxicity % (normal Vero cells; 2.5 uM): 61.6%
Toxicity % (normal Vero cells; 5 uM): 87.19%
Toxicity % (normal Vero cells; 10 uM): 93.85%
%inh (BRD4 (BD2); conc 0.01 (unit not given)): 30%
%inh (BRD4 (BD2); conc 0.1 (unit not given)): 46%
%inh (BRD4 (BD2); conc 1 (unit not given)): 67%
%inh (BRD4 (BD2); conc 10 (unit not given)): 83%
%inh (BRD4 (BD2); conc 100 (unit not given)): 94%
IC50 (BRD4 (BD2)): 77 ± 3 nM
%inh (human recombinant PLK1; conc 0.01 (unit not given)): 28%
%inh (human recombinant PLK1; conc 0.1 (unit not given)): 40%
%inh (human recombinant PLK1; conc 1 (unit not given)): 65%
%inh (human recombinant PLK1; conc 10 (unit not given)): 80%
%inh (human recombinant PLK1; conc 100 (unit not given)): 94%
IC50 (human recombinant PLK1): 204 ± 9 nM

Cn1c(SCC(=O)c2ccccc2)nc(=O)c(/N=C(/CBr)c2ccccc2)c1N [Compound 7, (E)-6-Amino-5-((2-bromo-1-phenylethylidene)amino)-1-methyl-2-((2-oxo-2-phenylethyl)thio)pyrimidin-4(1H)-one]
IC50 [1, 5]: 400 ± 10 nM
viability at 0.312 µM ([1]; MTT, 0.312 uM): 57%
viability at 0.625 µM ([1]; MTT, 0.625 uM): 28.9%
viability at 1.25 µM ([1]; MTT, 1.25 uM): 16.5%
viability at 2.5 µM ([1]; MTT, 2.5 uM): 11.7%
viability at 5 µM ([1]; MTT, 5 uM): 11%
viability at 10 µM ([1]; MTT, 10 uM): 4.92%
Toxicity % ([1]; MTT, 0.312 uM): 42.95%
Toxicity % ([1]; MTT, 0.625 uM): 71.14%
Toxicity % ([1]; MTT, 1.25 uM): 83.51%
Toxicity % ([1]; MTT, 2.5 uM): 88.25%
Toxicity % ([1]; MTT, 5 uM): 88.96%
Toxicity % ([1]; MTT, 10 uM): 95.08%
Toxicity % ([2]; HT29, MTT, 0.312 uM): 0.04307%
Toxicity % ([2]; HT29, MTT, 0.625 uM): 45.56%
Toxicity % ([2]; HT29, MTT, 1.25 uM): 86.39%
Toxicity % ([2]; HT29, MTT, 2.5 uM): 88.67%
Toxicity % ([2]; HT29, MTT, 5 uM): 93.28%
Toxicity % ([2]; HT29, MTT, 10 uM): 93.71%
viability at 0.312 µM ([2]; HT29, MTT, 0.312 uM): 100%
viability at 0.625 µM ([2]; HT29, MTT, 0.625 uM): 54.4%
viability at 1.25 µM ([2]; HT29, MTT, 1.25 uM): 13.6%
viability at 2.5 µM ([2]; HT29, MTT, 2.5 uM): 11.3%
viability at 5 µM ([2]; HT29, MTT, 5 uM): 6.72%
viability at 10 µM ([2]; HT29, MTT, 10 uM): 6.29%
IC50 [2, 6]: 790 ± 10 nM
viability at 0.312 µM [3]: 94%
viability at 0.625 µM [3]: 88.3%
viability at 1.25 µM [3]: 55.4%
viability at 2.5 µM [3]: 39.7%
viability at 5 µM [3]: 29.6%
viability at 10 µM [3]: 11.4%
IC50 (U-937 renal cancer cells; [8]): 1850 ± 40 nM
Toxicity % (U-937 renal cancer cells; U937, MTT, 0.312 uM): 5.991%
Toxicity % (U-937 renal cancer cells; U937, MTT, 0.625 uM): 11.66%
Toxicity % (U-937 renal cancer cells; U937, MTT, 1.25 uM): 44.55%
Toxicity % (U-937 renal cancer cells; U937, MTT, 2.5 uM): 60.35%
Toxicity % (U-937 renal cancer cells; U937, MTT, 5 uM): 70.37%
Toxicity % (U-937 renal cancer cells; U937, MTT, 10 uM): 88.56%
IC50 [4]: 3920 ± 80 nM
viability at 0.312 µM [4]: 99.6%
viability at 0.625 µM [4]: 99.8%
viability at 1.25 µM [4]: 97.6%
viability at 2.5 µM [4]: 73.5%
viability at 5 µM [4]: 31.6%
viability at 10 µM [4]: 10.5%
Toxicity % (normal Vero cells; 0.312 uM): 0.3992%
Toxicity % (normal Vero cells; 0.625 uM): 0.1996%
Toxicity % (normal Vero cells; 1.25 uM): 2.395%
Toxicity % (normal Vero cells; 2.5 uM): 26.55%
Toxicity % (normal Vero cells; 5 uM): 68.38%
Toxicity % (normal Vero cells; 10 uM): 89.46%
%inh (BRD4 (BD2); conc 0.01 (unit not given)): 38%
%inh (BRD4 (BD2); conc 0.1 (unit not given)): 56%
%inh (BRD4 (BD2); conc 1 (unit not given)): 74%
%inh (BRD4 (BD2); conc 10 (unit not given)): 89%
%inh (BRD4 (BD2); conc 100 (unit not given)): 95%
IC50 (BRD4 (BD2)): 42 ± 2 nM
%inh (human recombinant PLK1; conc 0.01 (unit not given)): 43%
%inh (human recombinant PLK1; conc 0.1 (unit not given)): 60%
%inh (human recombinant PLK1; conc 1 (unit not given)): 76%
%inh (human recombinant PLK1; conc 10 (unit not given)): 90%
%inh (human recombinant PLK1; conc 100 (unit not given)): 95%
IC50 (human recombinant PLK1): 20 ± 1 nM
